Laboratory results: article PMC6435658, “Investigation into the Molecular Mechanisms underlying the Anti-proliferative and Anti-tumorigenesis activities of Diosmetin against HCT-116 Human Colorectal Cancer” (Scientific Reports, 2019)
≈ marks a conversion by molar mass, not a printed value.

Experiments:
HCC = system: HCC; parameters: method as in PMID 19424633, PMID 27176768, PMID 26847170, PMID 20183323; conditions: 24 h treatment, ref [10],[13],[15],[47]; cited from earlier work
HCT-116 cells [1] = assay: Human apoptosis protein array (proteome profiler); format: cell-based; conditions: vs control
Procedure: Apoptosis protein expression profiling was performed using human apoptosis array (R&D Systems, Minneapolis, MN, USA) according to the manufacturer’s protocol. In brief, 2 × 10^6 HCT-116 cells were seeded and treated with Dis in 75 cm^2 flask and incubated for 48 h. Cells were harvested and lysed via lysis buffer reagent and was quantified using Pierce BCA protein assay kit (Thermo Scientific™, Pittsburgh, PA, USA). The membrane provided was blocked in blocking solution reagent and treated overnight with cell lysates protein. The membrane was washed and subsequently incubated with detection antibody cocktail and streptavidin horseradish peroxidase-conjugated. Chemiluminescent reagents were added to the membrane and then exposed to X-ray film to detect the protein expression levels in treated cells as compared to untreated cells. Images were quantified via ImageJ software (NIH, USA). The list of investigated proteins is provided as supplementary data (Table S2).

HCT-116 cells [2] = assay: MTT cytotoxicity assay, HCT-116; format: cell-based, human; conditions: for IC50: Homo sapiens, MTT
Procedure: Cytotoxicity property of Dis against HCT-116 and CCD-841 cells were measured by MTT assay as described by Mossman[77]. Briefly, cells were treated with different concentration of Dis and 5-Fu (positive control) with serial dilution factor of 2 for 8 concentrations in 96 well-plate for different time points (24 h, 48 h and 72 h). Subsequently at the end of each time point 20 µl of MTT (5 mg/ml, Affymetrix,Cleveland, OH, USA) were added to each well followed by 4 h incubation. The solutions were aspirated after 4 h and 100 µl of DMSO were added to each well. Absorbance for each well was read at 570 nm as measured by using microplate reader (Tecan Infinite multimode, Männedorf, Switzerland). Cytotoxicity (cell death) was measured by using the following formula: Celldeath(%)=sampleOD−controlOD/controlOD100
This assay was performed in triplicates in three independent experiments. The cytotoxicity property of Dis was presented as IC50 value.

NF-κB = assay: Translocation of NF-κB induced by TNF-α; format: cell-based, human; conditions: HCT-116 stimulated with TNF-α, vs untreated group
Procedure: Confocal microscope was used to detect the suppressive effect of Dis on translocation of NF-κB from cytoplasm to nucleus induced by TNF-α (Santa Cruz, CA, USA) using cellomics nucleus factor-κB (NF-κB) activation kit (Thermo Scientific™, Pittsburgh, PA, USA). HCT-116 cells were seeded and treated with Dis at different time points in 24 well-plate covered with cover slide. An amount of 150 ng/ml of TNF-α was used as a stimulator for 24 h. Cells were then fixed and stained according to the manufacturer’s instructions. Translocation of NF-κB was investigated via confocal Leica TCS SP5 II microscope (Leica Microsystems, Mannheim, Germany) and intensity of NF-κB was measured by using LAS X software.

## COc1ccc(-c2cc(=O)c3c(O)cc(O)cc3o2)cc1O [Dis, Diosmetin]
HCC
  IC50: 50 µg/mL (≈ 167 µM)
HCT-116 cells [1]; HCT-116, 3.58 µg/ml Dis, 48 h
  Protein expression of caspase 3 cleavage, fold change: 2.61
  Protein expression of pro-caspase 3, fold change: 0.75
HCT-116 cells [1]; HCT-116, 48 h
  Hsp27 expression, gene and protein levels: significantly decreased
  expression of FADD: significantly increased
  protein expression level of Bax: accelerated
  protein expression level of Cytochrome C: accelerated
  protein expression of Survivin: significantly decreased
HCT-116 cells [2]; HCT-116, 24 h
  IC50: 5.56 ± 0.48 µg/mL (≈ 18.5 µM)
HCT-116 cells [2]; HCT-116, 48 h
  IC50: 3.58 ± 0.58 µg/mL (≈ 11.9 µM)
HCT-116 cells [2]; HCT-116, 72 h
  IC50: 3.41 ± 0.64 µg/mL (≈ 11.4 µM)
HCT-116 cells [2]; IC50 CCD-841 / IC50 HCT-116, 24 h
  Selectivity Index (SI): 42.53
HCT-116 cells [2]; IC50 CCD-841 / IC50 HCT-116, 48 h
  Selectivity Index (SI): 14.51
HCT-116 cells [2]; IC50 CCD-841 / IC50 HCT-116, 72 h
  Selectivity Index (SI): 11.88
NF-κB
  translocation of NF-ƙB: significantly reduced
